From paper PMC9408887 (International Journal of Molecular Sciences, 2022)
Read-outs that look alike come from different tables or passages of the source.

Tests used:
Bla2 [1] = biological target: T1, Bla2 (Bacillus anthracis, UniProt Q93T40); format: biochemical
Bla2 [2] = biological target: T1, Bla2; assay: biochemical; format: biochemical
Bla2 [3] = conditions: cited from earlier work

T1 sequence (Q93T40 1-256): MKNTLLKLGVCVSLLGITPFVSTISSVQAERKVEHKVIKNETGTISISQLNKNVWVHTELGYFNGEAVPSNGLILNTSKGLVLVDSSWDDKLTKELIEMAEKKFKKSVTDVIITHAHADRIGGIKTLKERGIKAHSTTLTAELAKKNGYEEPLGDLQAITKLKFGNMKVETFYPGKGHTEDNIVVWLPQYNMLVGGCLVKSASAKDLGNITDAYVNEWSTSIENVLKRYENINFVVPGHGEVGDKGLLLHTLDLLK

| Compound | Ki (Bla2 [1]) [µM] | mode of inhibition (Bla2 [1]) | Ki (Bla2 [1]; pH 7) [µM] | IC50 (Bla2 [2]; pH 7, read-out: IC50) [µM] | inhibition (Bla2 [3]) | IC50 (Bla2 [2]) [µM] |
| --- | --- | --- | --- | --- | --- | --- |
| 3-chloro-N-hydroxy-4-(7-(hydroxyamino)-7-oxoheptyl)benzamide [Compound 4] | 6.4 ± 1.7 | competitive inhibition | 6.4 ± 1.7 | 20 ± 5 |  |  |
| O=C(CCCCCOc1cccc(C(=O)NO)c1)NO [N-hydroxy-3-((6-(hydroxyamino)-6-oxohexyl)oxy)benzamide] |  |  |  |  | significant inhibition |  |
| N-hydroxy-4-(7-(hydroxyamino)-7-oxoheptyl)-3-methoxybenzamide [Compound 6] | 4.7 ± 1.4 | competitive inhibition | 4.7 ± 1.4 | 14.9 ± 9.8 |  |  |
| CCCCCCCOc1cccc(C(=O)NO)c1 [3-(heptyloxy)-N-hydroxybenzamide] |  |  |  |  | no inhibition |  |
| O=C(CCCCCCC(=O)Nc1ccccc1)NO [SAHA, suberoylanilide hydroxamic acid, reference compound] |  |  |  |  |  | > 100 |
